This note sets out measurements from patent US5677419A, “Cyclic vasoactive peptide analogs” (Hoffmann-La Roche Inc., priority 1994, dated 1997).

Structures are written as SMILES. Where a SMILES comes first, the peptide text is derived from it. Bridges are numbered along the chain shown (N, C = ends). [ ]: non-standard residue; d: D form. Phe(4-NH2) = Nc1ccc(C[C@H](N)C(=O)O)cc1; Phe(4-F) = N[C@@H](Cc1ccc(F)cc1)C(=O)O; 1Nal = N[C@@H](Cc1cccc2ccccc12)C(=O)O; NMeA = CN[C@@H](C)C(=O)O; Nle = CCCC[C@H](N)C(=O)O

One assay has as its system guinea pigs. Briefly: In vivo bronchodilator activity by tracheal instillation against histamine challenge. On the set-up: species or system guinea pig. As to conditions: anesthetized male guinea pigs, inhibition of histamine (i.v.)-induced rise in tracheal pressure. The procedure:
The in vivo bronchodilator activity of VIP and VIP analogs in guinea pigs was assessed by the tracheal instillation route of administration. This technique utilized male guinea pigs (Hartley strain, Charles River) weighing 400-600 g. Animals were anesthetized with urethane (2 g/kg) intraperitoneally and a polyethylene cannula was inserted into the jugular vein for intraveneous drug administration.
The animals were tracheotomized and dosing solutions of distilled water or test compound dissolved in distilled water were administered into the trachea, approximately three-quarters the distance to the carina with a pipette. The concentration of the dosing solution was adjusted to deliver a constant volume of […]. The animals were placed supine for one minute to aid drug delivery to the lung. One minute later, spontaneous breathing was arrested with succinylcholine chloride (1.2 mg/kg) administered intraveneously, and the animals were ventilated with a HARVARD Model 680 small animal respirator set at 40 breaths/min and 4.0 cm^3 stroke volume. The animals were challenged with a maximal constrictory dose of histamine ([…], i.v.) and tracheal pressure (cm of water) was recorded from a STATHAM pressure transducer (P 32 AA).
The change in tracheal pressure was averaged for at least 3 control and 3 drug-treated animals and percent inhibition was calculated. The relative potency of compounds administered by the instillation route was determined by administering various doses of test compound and calculating the median effective dose (ED50 value). The ED50 was determined from log dose-response curves generated by at least 3 doses that caused inhibitory effects between 10% and 90%. The correlation coefficients for the regression line of each compound was always greater than 0.95.
For determination of the time course of inhibition for various compounds, the time between administration of compound and challenge with histamine was varied. The time course of activity was calculated as the time when inhibition decreased to 40%.
The results summarized in Table II show the in vivo bronchodilator activity of the VIP analogs in comparison to native VIP.

Assay [1] deals with guinea pig tracheal smooth muscle. The assay is described as follows: Tracheal relaxant activity of VIP analogs on isolated guinea pig tracheal rings. As to conditions: cumulative concentration response, relaxation as % of maximum response to VIP (10^-6 M=100%), three tissues pooled, linear regression. Format: cell-based. In outline: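 Male guinea pig tracheal rings under 1.5 g resting tension in Krebs at 37° C, 95% O2/5% CO2, isometric tension. Cumulative concentration-response curves; relaxation as % of response to 10^-6 M VIP added at end; three tissues pooled, EC50 by linear regression.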

As a reminder, the EC50 is the concentration that produces a half-maximal response.

`CCCC[C@H](NC(=O)[C@H](CCC(N)=O)NC(=O)[C@H](CCCCN)NC(=O)[C@H](CCCNC(=N)N)NC(=O)[C@H](CC(C)C)NC(=O)[C@H](CCCCN)NC(=O)[C@@H](NC(=O)[C@H](Cc1ccc(O)cc1)NC(=O)[C@H](CC(N)=O)NC(=O)[C@H](CCC(=O)O)NC(=O)[C@@H](NC(=O)[C@H](Cc1ccccc1)NC(=O)[C@@H](NC(=O)[C@H](C)NC(=O)[C@H](CC(=O)O)NC(=O)[C@H](C)NC(=O)[C@H](Cc1c[nH]cn1)NC(C)=O)C(C)C)[C@@H](C)O)[C@@H](C)O)C(=O)N[C@@H](C)C(=O)N[C@@H](C)C(=O)N[C@@H](CCCCN)C(=O)N[C@H]1CCCCNC(=O)C[C@@H](C(=O)N[C@@H](CC(C)C)C(=O)N[C@@H](CCCCN)C(=O)N[C@@H](CCCCN)C(=O)N[C@@H](C)C(=O)N[C@@H](C)C(=O)N[C@@H](C)C(N)=O)NC(=O)[C@H](CC(N)=O)NC(=O)[C@H](CC(C)C)NC(=O)[C@H](Cc2ccc(O)cc2)NC1=O` [SEQ ID NO:43, Ac-[Ala^2,Glu^8,Lys^12,Nle^17,Ala^19,Asp^25,Leu^26,Lys^27,28,Ala^29-31]-VIP cyclo (Lys^21 →Asp^25)] (Ac-HADAVFTENYTKLRKQ[Nle]AAKKYLNDLKKAAA-NH2; lactam 21-25): in the assay with guinea pigs, the “Bronchodilator activity of VIP analogs in guinea pigs, ED50” value (“Bronchodilator activity of VIP analogs” for short) is listed as 0.14 μg. The compound also displayed an EC50 in assay [1] of 0.55 nM.
For `CCCC[C@H](NC(=O)[C@H](CCC(N)=O)NC(=O)[C@H](CCCCN)NC(=O)[C@H](CCCNC(=N)N)NC(=O)[C@H](CC(C)C)NC(=O)[C@H](CCCCN)NC(=O)[C@@H](NC(=O)[C@H](Cc1ccc(O)cc1)NC(=O)[C@H](CC(N)=O)NC(=O)[C@H](CCC(=O)O)NC(=O)[C@@H](NC(=O)[C@H](Cc1ccccc1)NC(=O)[C@@H](NC(=O)[C@H](C)NC(=O)[C@H](CC(=O)O)NC(=O)[C@H](CO)NC(=O)[C@H](C)N(C)C(C)=O)C(C)C)[C@@H](C)O)[C@@H](C)O)C(=O)N[C@@H](C)C(=O)N[C@@H](C)C(=O)N[C@@H](CCCCN)C(=O)N[C@H]1CCCCNC(=O)C[C@@H](C(=O)N[C@@H](CC(C)C)C(=O)N[C@@H](CCCCN)C(=O)N[C@@H](CCCCN)C(N)=O)NC(=O)[C@H](CC(N)=O)NC(=O)[C@H](CC(C)C)NC(=O)[C@H](Cc2ccc(O)cc2)NC1=O` [SEQ ID NO:44, Ac-[N-Me-Ala^1,Glu^8,Lys^12,Nle^17,Ala^19,Asp^25,Leu^26,Lys^27,28]-VIP cyclo (Lys^21 →Asp^25)] (Ac-[NMeA]SDAVFTENYTKLRKQ[Nle]AAKKYLNDLKK-NH2; lactam 21-25), in that order: 0.097 μg and 0.36 nM.
Regarding `CCCC[C@H](NC(=O)[C@H](CCC(N)=O)NC(=O)[C@H](CCCCN)NC(=O)[C@H](CCCNC(=N)N)NC(=O)[C@H](CC(C)C)NC(=O)[C@H](CCCCN)NC(=O)[C@@H](NC(=O)[C@H](Cc1ccc(O)cc1)NC(=O)[C@H](CC(N)=O)NC(=O)[C@H](CCC(=O)O)NC(=O)[C@@H](NC(=O)[C@H](Cc1ccc(F)cc1)NC(=O)[C@@H](NC(=O)[C@H](C)NC(=O)[C@H](CC(=O)O)NC(=O)[C@H](CO)NC(=O)[C@H](Cc1c[nH]cn1)NC(C)=O)C(C)C)[C@@H](C)O)[C@@H](C)O)C(=O)N[C@@H](C)C(=O)N[C@@H](C)C(=O)N[C@@H](CCCCN)C(=O)N[C@H]1CCCCNC(=O)C[C@@H](C(=O)N[C@@H](CC(C)C)C(=O)N[C@@H](CCCCN)C(=O)N[C@@H](CCCCN)C(N)=O)NC(=O)[C@H](CC(N)=O)NC(=O)[C@H](CC(C)C)NC(=O)[C@H](Cc2ccc(O)cc2)NC1=O` [SEQ ID NO:45, Ac-[p-F-Phe^6,Glu^8,Lys^12,Nle^17,Ala^19,Asp^25,Leu^26,Lys^27,28]-VIP cyclo (Lys^21 →Asp^25)] (Ac-HSDAV[Phe(4-F)]TENYTKLRKQ[Nle]AAKKYLNDLKK-NH2; lactam 21-25), the “Bronchodilator activity of VIP analogs” value with guinea pigs was determined as 0.026 μg. In assay [1], a half-maximal response (EC50) required 0.47 nM.
For `CCCC[C@H](NC(=O)[C@H](CCC(N)=O)NC(=O)[C@H](CCCCN)NC(=O)[C@H](CCCNC(=N)N)NC(=O)[C@H](CC(C)C)NC(=O)[C@H](CCCCN)NC(=O)[C@@H](NC(=O)[C@H](Cc1ccc(O)cc1)NC(=O)[C@H](CC(N)=O)NC(=O)[C@H](CCC(=O)O)NC(=O)[C@@H](NC(=O)[C@H](Cc1cccc2ccccc12)NC(=O)[C@@H](NC(=O)[C@H](C)NC(=O)[C@H](CC(=O)O)NC(=O)[C@H](CO)NC(=O)[C@H](Cc1c[nH]cn1)NC(C)=O)C(C)C)[C@@H](C)O)[C@@H](C)O)C(=O)N[C@@H](C)C(=O)N[C@@H](C)C(=O)N[C@@H](CCCCN)C(=O)N[C@H]1CCCCNC(=O)C[C@@H](C(=O)N[C@@H](CC(C)C)C(=O)N[C@@H](CCCCN)C(=O)N[C@@H](CCCCN)C(N)=O)NC(=O)[C@H](CC(N)=O)NC(=O)[C@H](CC(C)C)NC(=O)[C@H](Cc2ccc(O)cc2)NC1=O` [SEQ ID NO:46, Ac-[1-Nal^6,Glu^8,Lys^12,Nle^17,Ala^19,Asp^25,Leu^26,Lys^27,28]-VIP cyclo (Lys^21 →Asp^25)] (Ac-HSDAV[1Nal]TENYTKLRKQ[Nle]AAKKYLNDLKK-NH2; lactam 21-25), in that order: 0.036 μg and 0.26 nM.
For the compound `CCCC[C@H](NC(=O)[C@H](CCC(N)=O)NC(=O)[C@H](CCCCN)NC(=O)[C@H](CCCNC(=N)N)NC(=O)[C@H](CC(C)C)NC(=O)[C@H](CCCCN)NC(=O)[C@@H](NC(=O)[C@H](Cc1ccc(N)cc1)NC(=O)[C@H](CC(N)=O)NC(=O)[C@H](CCC(=O)O)NC(=O)[C@@H](NC(=O)[C@H](Cc1ccccc1)NC(=O)[C@@H](NC(=O)[C@H](C)NC(=O)[C@H](CC(=O)O)NC(=O)[C@H](CO)NC(=O)[C@H](Cc1c[nH]cn1)NC(C)=O)C(C)C)[C@@H](C)O)[C@@H](C)O)C(=O)N[C@@H](C)C(=O)N[C@@H](C)C(=O)N[C@@H](CCCCN)C(=O)N[C@H]1CCCCNC(=O)C[C@@H](C(=O)N[C@@H](CC(C)C)C(=O)N[C@@H](CCCCN)C(=O)N[C@@H](CCCCN)C(N)=O)NC(=O)[C@H](CC(N)=O)NC(=O)[C@H](CC(C)C)NC(=O)[C@H](Cc2ccc(O)cc2)NC1=O` [SEQ ID NO:47, Ac-[Glu^8,p-NH2 -Phe^10,Lys^12,Nle^17,Ala^19,Asp^25,Leu^26,Lys^27,28]-VIP cyclo (Lys^21 →Asp^25)] (Ac-HSDAVFTEN[Phe(4-NH2)]TKLRKQ[Nle]AAKKYLNDLKK-NH2; lactam 21-25), the “Bronchodilator activity of VIP analogs” value in the assay with guinea pigs amounted to 0.075 μg. Also, the midpoint of the response in assay [1], the EC50, lay at 0.32 nM.
Taken in the same sequence, the figures for `CCCC[C@H](NC(=O)[C@H](CCC(N)=O)NC(=O)[C@H](CCCCN)NC(=O)[C@H](CCCNC(=N)N)NC(=O)[C@H](CC(C)C)NC(=O)[C@H](CCCCN)NC(=O)[C@@H](NC(=O)[C@H](Cc1ccc(OC)cc1)NC(=O)[C@H](CC(N)=O)NC(=O)[C@H](CCC(=O)O)NC(=O)[C@@H](NC(=O)[C@H](Cc1ccccc1)NC(=O)[C@@H](NC(=O)[C@H](C)NC(=O)[C@H](CC(=O)O)NC(=O)[C@H](CO)NC(=O)[C@H](Cc1c[nH]cn1)NC(C)=O)C(C)C)[C@@H](C)O)[C@@H](C)O)C(=O)N[C@@H](C)C(=O)N[C@@H](C)C(=O)N[C@@H](CCCCN)C(=O)N[C@H]1CCCCNC(=O)C[C@@H](C(=O)N[C@@H](CC(C)C)C(=O)N[C@@H](CCCCN)C(=O)N[C@@H](CCCCN)C(N)=O)NC(=O)[C@H](CC(N)=O)NC(=O)[C@H](CC(C)C)NC(=O)[C@H](Cc2ccc(O)cc2)NC1=O` [SEQ ID NO:48, Ac-[Glu^8,O-Me-Tyr^10,Lys^12,Nle^17,Ala^19,Asp^25,Leu^26, Lys^27,28]-VIP cyclo (Lys^21 →Asp^25)] (Ac-HSDAVFTENY(Me)TKLRKQ[Nle]AAKKYLNDLKK-NH2; lactam 21-25) were 0.094 μg and 0.41 nM.
For `CCCC[C@H](NC(=O)[C@H](CCC(N)=O)NC(=O)[C@H](CCCCN)NC(=O)[C@H](CCCNC(=N)N)NC(=O)[C@H](CC(C)C)NC(=O)[C@H](CCCCN)NC(=O)[C@@H](NC(=O)[C@H](Cc1ccc(O)cc1)NC(=O)[C@H](CC(N)=O)NC(=O)[C@H](CC(=O)O)NC(=O)[C@@H](NC(=O)[C@H](Cc1ccc(F)cc1)NC(=O)[C@@H](NC(=O)[C@H](C)NC(=O)[C@H](CC(=O)O)NC(=O)[C@H](CO)NC(=O)[C@H](Cc1c[nH]cn1)NC(C)=O)C(C)C)[C@@H](C)O)[C@@H](C)O)C(=O)N[C@@H](C)C(=O)N[C@@H](C)C(=O)N[C@@H](CCCCN)C(=O)N[C@H]1CCCCNC(=O)C[C@@H](C(=O)N[C@H](C(=O)N[C@@H](CC(C)C)C(=O)N[C@H](C(N)=O)[C@@H](C)O)C(C)C)NC(=O)[C@H](CC(N)=O)NC(=O)[C@H](CC(C)C)NC(=O)[C@H](Cc2ccc(O)cc2)NC1=O` [SEQ ID NO:49, Ac-[p-F-Phe^6,Lys^12,Nle^17,Ala^19,Asp^25,Val^26,Thr^28]-VIP cyclo (Lys^21 →Asp^25)] (Ac-HSDAV[Phe(4-F)]TDNYTKLRKQ[Nle]AAKKYLNDVLT-NH2; lactam 21-25), in that order: 0.26 μg and 0.39 nM.
